Experiment [1] deals with Escherichia coli. The experiment in a line: Bactericidal activity against Escherichia coli ATCC 25922 assessed as change in metabolic stress associated gene expression by measuring down-regulation of gale (DX983_RS06370) gene expression at 4 times of MIC concentration measured after 90 mins incubation by RNA sequencing (RNA-seq) study. It counts as functional, organism-based.

Experiment [2] deals with Escherichia coli. The experiment in a line: Antibacterial activity against Escherichia coli ATCC 25922 assessed as inhibition of bacterial growth incubated for 24 hrs in presence of 2.5 mM Ca2+ by broth dilution method. In kind it is functional. (In broth dilution the organism is exposed to a series of concentrations in liquid medium.)
In experiment [3] the test system is Staphylococcus aureus. As to the kind of experiment: Bactericidal activity against methicillin-resistant Staphylococcus aureus NCTC 10442 assessed as change in amino acid metabolism gene expression at 4 times of MIC concentration measured after 90 mins incubation by RNA sequencing (RNA-seq) study. In kind it is functional, organism-based.
A further experiment has as its system Cell membrane. The experiment in a line: Induction of outer membrane permeabilization in Escherichia coli ATCC 25922 assessed as increase in fluorescence intensity at 1 to 8 times MIC concentration by NPN-dye based fluorescence analysis. In kind it is cell membranes.
In experiment [4] the test system is Staphylococcus aureus. As to the kind of experiment: Antibacterial activity against methicillin-resistant Staphylococcus aureus NCTC 10442 assessed as inhibition of bacterial growth incubated for 24 hrs in presence of 140 mM Na+ by broth dilution method. It counts as functional.
Experiment [5] has as its system Staphylococcus aureus. As to the kind of experiment: Bactericidal activity against methicillin-resistant Staphylococcus aureus NCTC 10442 assessed as up-regulation of molecular functions related gene expression by measuring glutamate-ammonia ligase activity (GO:0004356) at 4 times of MIC concentration measured after 90 mins incubation by RNA sequencing (RNA-seq) study. In kind it is functional, organism-based.

Experiment [6] has as its system Escherichia coli. As to the kind of experiment: Bactericidal activity against Escherichia coli ATCC 25922 assessed as change in xenobiotics biodegradation and metabolism gene expression at 4 times of MIC concentration measured after 90 mins incubation by RNA sequencing (RNA-seq) study. In kind it is functional, organism-based.
The subject of experiment [7] is Staphylococcus aureus. As to the kind of experiment: Antibacterial activity against Staphylococcus aureus ATCC 29213 assessed as inhibition of bacterial growth incubated for 24 hrs in presence of 20 uM Fe2+ by broth dilution method. It counts as functional.
The next experiment relates to Klebsiella pneumoniae. As to the kind of experiment: Antibacterial activity against Klebsiella pneumoniae ATCC 10031 assessed as inhibition of bacterial growth incubated for 24 hrs in presence of 20 uM Fe3+ by broth dilution method. In kind it is functional.

The values below come from ChEMBL document CHEMBL5543084, “Development of cannabidiol derivatives as potent broad-spectrum antibacterial agents with membrane-disruptive mechanism” (Eur J Med Chem, 2024).

Active and inactive are the calls of the source. The calls are words filed in the database; no cut-off is given here.

Regarding `C=C(C)[C@@H]1CCC(C)=C[C@H]1c1c(OCCCNC(=N)N)cc(CCCCC)cc1OCCCNC(=N)N`, the outcome with Escherichia coli [1], in the experiment on Staphylococcus aureus [3], with Staphylococcus aureus [5] and in the experiment on Escherichia coli [6] was Active. The MIC (in general, the least concentration at which growth counts as inhibited) was 3.12 µg/mL with Escherichia coli [2], 0.39 µg/mL with Staphylococcus aureus [4], 0.39 µg/mL in the experiment with Staphylococcus aureus [7] and 3.12 µg/mL with Klebsiella pneumoniae. Besides, the Activity entry in the experiment on Cell membrane is “Dose-Dependent Effect”.
